The structures appear in SMILES notation.

In assay [1] the target is T1, RAC-alpha serine/threonine-protein kinase (Homo sapiens, UniProt P31749). The assay can be described thus: Inhibition of His-tagged ATP-binding domain of AKT1 assessed as GRPRTSSFAEG crosstide phosphorylation using [33P]ATP.
For assay [2], the target named is T1, RAC-alpha serine/threonine-protein kinase. In words: Inhibition of His-tagged ATP-binding domain of AKT1 assessed as residual activity by measuring GRPRTSSFAEG crosstide phosphorylation at 50 uM using [33P]ATP.

T1 sequence (P31749 whole entry, the tested form may be a part): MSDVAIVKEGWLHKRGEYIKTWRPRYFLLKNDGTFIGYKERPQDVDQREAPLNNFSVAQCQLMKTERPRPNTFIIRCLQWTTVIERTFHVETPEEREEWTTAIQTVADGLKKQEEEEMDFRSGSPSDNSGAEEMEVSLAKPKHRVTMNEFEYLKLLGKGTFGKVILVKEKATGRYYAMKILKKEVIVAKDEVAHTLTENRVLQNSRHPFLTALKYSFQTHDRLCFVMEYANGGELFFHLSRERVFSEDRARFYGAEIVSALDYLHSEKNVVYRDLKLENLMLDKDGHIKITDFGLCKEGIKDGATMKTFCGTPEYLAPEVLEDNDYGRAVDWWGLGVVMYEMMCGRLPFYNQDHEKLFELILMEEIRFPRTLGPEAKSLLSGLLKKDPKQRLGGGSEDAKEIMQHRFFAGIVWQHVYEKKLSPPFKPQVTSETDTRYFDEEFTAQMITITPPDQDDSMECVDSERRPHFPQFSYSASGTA

As to `CC(C)[C@H](NC(=O)[C@@H]1CC[C@H]2[C@H](NC(=O)CCCCN=C(N)N)COC(=O)N12)C(=O)NC(Cc1ccccc1)C(=O)NCc1ccccc1` (mixture of isomers), the IC50 in assay [1] stood at 40.2 µM. Turning to `CC(C)[C@H](NC(=O)[C@@H]1CC[C@H]2[C@H](NC(=O)[C@H](CCCNC(=N)N)NC(=O)c3ccccc3)COC(=O)N12)C(=O)NC(Cc1ccccc1)C(=O)NCc1ccccc1` (mixture of isomers), in assay [1], the IC50 is 16.3 µM and the inhibition entry was “Dose-dependent effect”. Besides, the Activity in assay [2] worked out at 14.6%. For the compound `CC(C)[C@H](NC(=O)[C@@H]1CC[C@H]2[C@H](NC(=O)[C@H](CCCN=C(N)N)NC(=O)Cc3ccccc3)COC(=O)N12)C(=O)NC(Cc1ccccc1)C(=O)NCc1ccccc1` (mixture of isomers), in assay [1], the IC50 came to 15 µM. Regarding `CC(C)[C@H](NC(=O)[C@@H]1CC[C@H]2[C@H](NC(=O)[C@H](CCCN=C(N)N)NC(=O)OCc3ccccc3)COC(=O)N12)C(=O)NC(Cc1ccccc1)C(=O)NCc1ccccc1` (mixture of isomers), the IC50 in assay [1] is 3.1 µM. With `CC(C)[C@H](NC(=O)[C@@H]1CC[C@H]2[C@H](NC(=O)CCCCNC(=N)N)COC(=O)N12)C(=O)NC(Cc1ccccc1)C(=O)NCc1ccccc1` (mixture of isomers), the inhibition result in assay [1] was “Dose-dependent effect”. In assay [2], the Activity was 21.1%. In the case of `CC(C)[C@H](NC(=O)[C@@H]1CC[C@H]2[C@H](NC(=O)CNC(=N)N)COC(=O)N12)C(=O)NC(Cc1ccccc1)C(=O)NCc1ccccc1` (mixture of isomers), the Activity in assay [2] came out at 89.4%. With `CC(C)[C@H](NC(=O)[C@@H]1CC[C@H]2[C@H](NC(=O)[C@H](CCCNC(=N)N)NC(=O)Cc3ccccc3)COC(=O)N12)C(=O)NC(Cc1ccccc1)C(=O)NCc1ccccc1` (mixture of isomers), the inhibition entry in assay [1] is “Dose-dependent effect”. For the same compound, the Activity in assay [2] is 16.8%. On to `CC(C)[C@H](NC(=O)[C@@H]1CC[C@H]2[C@H](NC(=O)[C@H](CCCNC(=N)N)NC(=O)OCc3ccccc3)COC(=O)N12)C(=O)NC(Cc1ccccc1)C(=O)NCc1ccccc1` (mixture of isomers), for which the inhibition entry in assay [1] is “Dose-dependent effect”. Moreover, in assay [2], the Activity is 2.2%.

By IC50 is commonly meant the concentration at which inhibition is half-maximal.

Source of the values: ChEMBL document CHEMBL1921701, “Synthesis of GSK3β mimetic inhibitors of Akt featuring a novel extended dipeptide surrogate” (Bioorg Med Chem Lett, 2011).
